Test results published in patent US20110093959A1, “CRYPTOTIS PARVA SCREENING MODEL FOR ANTIEMETIC POTENTIAL” (priority 2008, published 2011).
Where “and” joins values, the source holds several entries; their conditions need not be identical. Identical values can stand only once.

Columns and labels:
Type in all cases: in vivo, Cryptotis parva
[1] = test system: substance P tissue levels; assay: Substance P tissue levels after CIS (EIA)
Procedure: These parameters were used in our neurochemical studies. Prior to experimentation, shrews were habituated to the laboratory environment as described for the behavioral studies. […] Subgroups of each treatment were sacrificed by rapid decapitation at either 2 hr or 33 hr post-injection.
Preliminary sample preparation procedures were carried out to optimize detection conditions in accord with our published methods (Darmani et al., 2008). […] As proteases can be also deactivated by heat, at basic pH and in the presence of EDTA (Darmani et al., 2008), the entire intestine was immediately immersed in a 70° C. preheated for 5 min, 5 ml solution of normal saline containing […] EDTA at pH 8.0 in accordance to published methods (Darmani et al., 2008). Each sample was allowed to cool down naturally to room temperature and then each gut was thrice flushed and rinsed with 5 ml of the cited saline solution. Then, each gut was dissected and the duodenum and jejunum samples were placed separately in test tubes containing 1 ml assay buffer. The dissected frontal cortex and brainstem samples were placed in different test tubes containing 0.5 ml assay buffer. Each sample was homogenized using a tissue tearer (Biospec) set at level 5 for 15 sec. The homogenates were then centrifuged at 17,000×g for 15 min at 4° C. The supernatants were obtained and saved at […] until used for the EIA detection of SP. Samples were analyzed for SP using the “Correlate-EIA” kit from Assay Designs using a microplate reader.
(§1) When a significant dose and exposure interaction was found, then simple effects at a particular emesis phase was tested via a one-way ANOVA. Neurochemical data were initially analyzed by two-way analysis of variance (ANOVA) with drug dose (0 mg/kg and 10 mg/kg) and exposure time (2 hr and 33 hr) as factors. […] For each statistical test, a P value of<0.05 was necessary to achieve statistical significance.

Fos = Fos expression in the dorsal vagal complex resulting from CIS-induced vomiting; details: CIS 10 mg/kg i.p.; vs vehicle in place of CIS
Procedure: After the appropriate time period for acute or delayed phase vomiting, shrews were anesthetized with a lethal dose of pentobarbital (100 mg/kg) and perfused transcardially via blunted needle with a peristaltic pump. The shrew was perfused with ice cold 4% paraformaldehyde and 5% picric acid in pH 7.4, 0.1 M phosphate buffer (10 min). Brains were removed and stored in 30% sucrose in 0.1 M PB overnight, then embedded in blocks of 12% gelatin in 30% sucrose/PB. The blocks were postfixed for 3 hr in 2% paraformaldehyde/PB, then rinsed and immersed in 30% sucrose/PB until they sank (usually 1-2 hr). The brain block was cut sagittally on a freezing benchtop microtome (Leica) at 30 μm into 5 series, and stored in PB with 0.03% sodium azide.
Immunolabeling was accomplished by blocking a free-floating series with 10% normal horse serum (NHS) and 3% hydrogen peroxide in PB with 0.3% Tri-ton X-100 (TX) for 30 min. After rinsing in PB, tissue was put in sheep anti-Fos polyclonal antibody (Chemicon/Millipore, Temecula, Calif.; 1:600), with 5% NHS and 0.3% TX in PB, and incubated for about 42 hr at room temperature (RT) with gentle shaking. After rinsing in PB, the tissue was placed in biotinylated donkey anti-sheep IgG secondary antibody (Jackson Immunoresearch, West Grove, Pa.; 1:600) diluted in the same diluent described for the primary antibody, and the tissue incubated at RT with shaking for 75 min Tissue was then rinsed and incubated for 60 min in HRP-conjugated avidin-biotin complex (Vector Labs, Burlingame, Calif.; Vectastain kit diluted 1:2) in PB. Tissue was then rinsed twice in PB, then once in imidazole-acetate buffer (0.1 M, pH 7.4), then reacted for 6 min in 0.0006% hydrogen peroxide with 2% nickel ammonium sulfate-enhanced diaminobenzidine (DAB, 0.05% in 0.1 M imidazole-acetate buffer). All reagents for DAB processing were purchased from Sigma-Aldrich. […]

Least Shrew = assay: CIS dose-response emesis, abdominal contractions and feeding, 47-hour observation; details: for total frequency of emesis vs vehicle control: immediate and delayed phases
From the text: During the dark night phase a red light bulb was used to illuminate the shrew cage.
To habituate the shrews to the test environment, each animal was randomly selected and transferred to a 14×17×12 cm clean opaque plastic cage and was offered ten mealworms 1 hr prior to experimentation. […] Immediately following injection, each shrew was returned to its cage and their behaviors were videotaped for the next 47 hr. Animals were allowed ad libitum access to food (mealworms) and water. Food supply was maintained by making sure that two meal worms were always available in the cage throughout the observation time. Water was available throughout the experiment via small plastic container (1 cm in diameter and 0.5 cm in height) glued to the floor of each cage. The mean frequencies (±SEM) of vomitings (wet, dry and total) and abdominal contractions per hour and the number of mealworms eaten per hour, were scored separately from videotape recordings for each individual shrew for the entire observation period by a trained observer blind to the experimental conditions.
as §1

[2] = CIS 10 mg/kg, 2 hour (immediate phase)
[3] = CIS 10 mg/kg, 33 hour (delayed phase)
[4] = CIS 10 mg/kg, i.p., post exposure

Structure (SMILES): N.N.[Cl][Pt][Cl] [CIS, cis-platinum(II)diamine dichloride]
- duodenal SP tissue levels ([1]; CIS 10 mg/kg, 2 and 33 hour): failed to exhibit a significant effect
- frontal cortex SP tissue levels vs vehicle ([1]; CIS 10 mg/kg, 2 hour): no significant difference
- increase in brainstem SP levels vs vehicle [1, 2]: 1396%
- increase in jejunal SP levels vs vehicle [1, 2]: 333%
- decrease in frontal cortex SP levels vs vehicle ([1]; CIS 10 mg/kg, 33 hour): 39.2%
- increase in brainstem SP levels vs vehicle [1, 3]: 956%
- increase in jejunal SP levels vs vehicle [1, 3]: 226.5%
- brainstem mean SP level lower at 33 hour than at 2 hour ([1]; CIS groups): 100%
- Fos-IR in the DVC after CIS-induced vomiting (Fos): numerous Fos-IR nuclei
- peak immediate phase of emesis (Least Shrew; CIS 5 mg/kg, i.p.): third hour
- mealworms eaten vs control (Least Shrew; CIS 5 mg/kg, first night): ate significantly more
- time of maximal mean frequency of emesis, delayed phase (Least Shrew; [4]): 33 h
- time of maximal mean frequency of emesis, immediate phase (Least Shrew; [4]): 2 h and 2 to 3 h
- mealworms eaten vs control (Least Shrew; CIS 10 mg/kg, day 1): ate significantly more
- mealworms eaten vs control (Least Shrew; CIS 10 mg/kg, day 2): ate significantly less
- frequency of abdominal contractions vs vehicle (Least Shrew; CIS 10 mg/kg, delayed phase): greater frequencies
- frequency of dry emesis vs vehicle control (Least Shrew; CIS 10 mg/kg, delayed phase): greater frequencies
- total frequency of emesis vs vehicle control (Least Shrew; CIS 10 mg/kg): significantly different
- frequency of wet emesis vs control (Least Shrew; CIS 10 mg/kg, immediate phase): significantly greater frequencies
- time from which animals expired (Least Shrew; CIS 20 mg/kg, i.p., post-CIS exposure): ≥ 30 h
- mealworms eaten vs control (Least Shrew; CIS 20 mg/kg, day 1): ate less
- mealworms eaten vs control (Least Shrew; CIS 20 mg/kg, day 2): ate significantly less
- frequency of abdominal contractions vs vehicle (Least Shrew; CIS 20 mg/kg, delayed phase): greater frequencies
- mealworms eaten vs control (Least Shrew; CIS 20 mg/kg, first night): ate significantly less
- total frequency of emesis vs vehicle control (Least Shrew; CIS 20 mg/kg): significantly different
- frequency of dry vomiting vs vehicle control (Least Shrew; CIS 20 mg/kg, immediate phase): significantly greater frequencies
- frequency of wet emesis vs control (Least Shrew; CIS 20 mg/kg, immediate phase): significantly greater frequencies
- mean frequency of abdominal contractions vs vehicle (Least Shrew; CIS 20 mg/kg, immediate phase): significantly greater
- wet vomiting, dose effect (Least Shrew; CIS 5-20 mg/kg, delayed phase): no significant dose effect
